The test system of the assay is MC3T3-E1 cells. Conditions: alendronate only (0 nM Stanolone), MC3T3 cells stimulated for 10 days.

Like-named read-outs stand apart in the source and are kept apart here.

Description: MC3T3-E1 (ECACC, Acc. No. 99072810) were cultured in α-MEM (Invitrogen, Carlsbad, Calif.) supplemented with 100 U/ml penicillin, 100 ug/ml streptomycin (Invitrogen, Carlsbad, Calif.) and 5% fetal bovine serum (Hyclone, GE Healthcare). Cells were grown under standard conditions (37° C., 5% CO2 and 95% humidity). MC3T3-E1 cells were seeded at a density of 26000 cells/cm2 and seeding of the cells was considered as the day 0 timepoint. On day 1 post-plating, the medium of the MC3T3-E1 cells was replaced with osteogenic medium (the above-mentioned media supplemented with 50 μg/ml Ascorbic Acid (Sigma)), 10 nM β-glycerol phosphate (Sigma) and on day 3 post-plating, hormones or vehicle (0.1% ethanol) were added.
Cells were lysed for 10 minutes with lysisbuffer (100 mM Potassium phosphate, 0.2% Triton X-100, pH 7.8 containing protease inhibitor cocktail (Roche)). […] The luminescence (1 second) was measured with a Filtermax F5 (Molecular Devices).
The acidic phosphatase activity of the cells was determined by adding freshly prepared p-NPP buffer (4-nitrophenyl phosphate (Sigma) in 0.1 M NaAc+0.1% Triton X-100, pH5.5) to the cell lysates and incubated for 1.5 hrs at 37° C. and 5% CO2. […] The absorbance was measured at 405 nm with a Filtermax F5 (Molecular Devices). […]

For the compound `NCCCC(O)(P(=O)(O)O)P(=O)(O)O` [alendronate], the ALP/AP activity result (50 μM) is “decreases”; the ALP/AP activity result (2 and 10 μM) is listed as “small increase”.
